These results are taken from patent US6677330B1, “Fluorides of 4-substituted piperidine derivatives” (priority 1999, dated 2004).

Structures can show the parent of a compound that is named as a salt.

One data set has as its target T1, acetylcholinesterase (Rattus norvegicus, UniProt P37136).
T1 construct: Using a rat brain homogenate as a source of acetylcholinesterase; from tissue; host or cells: rat brain homogenate
T1 sequence (P37136 32-614): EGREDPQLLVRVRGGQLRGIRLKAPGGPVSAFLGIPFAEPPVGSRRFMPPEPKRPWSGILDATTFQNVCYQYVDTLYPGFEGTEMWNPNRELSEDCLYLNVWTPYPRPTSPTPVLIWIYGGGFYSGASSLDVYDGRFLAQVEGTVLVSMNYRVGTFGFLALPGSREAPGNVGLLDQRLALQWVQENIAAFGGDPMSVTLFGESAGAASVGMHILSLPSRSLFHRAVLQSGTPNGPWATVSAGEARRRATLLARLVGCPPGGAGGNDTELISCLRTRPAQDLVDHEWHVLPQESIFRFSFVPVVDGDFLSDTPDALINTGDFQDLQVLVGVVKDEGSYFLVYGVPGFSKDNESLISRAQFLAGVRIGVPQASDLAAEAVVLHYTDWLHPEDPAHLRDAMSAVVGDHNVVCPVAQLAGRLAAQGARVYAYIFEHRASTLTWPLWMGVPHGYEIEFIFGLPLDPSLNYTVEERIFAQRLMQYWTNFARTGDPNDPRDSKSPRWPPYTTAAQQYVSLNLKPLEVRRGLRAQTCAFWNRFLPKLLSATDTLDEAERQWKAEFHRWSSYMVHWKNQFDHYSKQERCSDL
Put plainly: biochemical. As to conditions: rat brain homogenate as enzyme source; acetylthiocholine substrate, DTNB, absorbance at 412 nm; read-out: IC50 (50% inhibitory concentration on acetylcholinesterase). On the procedure:
Inhibitory effect on acetylcholinesterase in vitro
Using a rat brain homogenate as a source of acetylcholinesterase, the esterase activity was determined in accordance with the method of Ellman et al^1). Acethylthiocholine (as a substrate), a test compound and DTNB (5,5′-dithiobis(2-nitrobenzoic acid)) were added to the […] brain homogenate, and then incubated. Then, the resulting yellow product produced by the reaction of the resulting thiocholine with DTNB was determined for the change in absorbanceat 412 nm, to determine the acethylcholinesterase activity.
^1); Ellman. G. L., Courtney, K. D., Andres, V. and Featherstone, R. M., (1961), Biochem. Pharmacol., 7, 88-95.
The inhibitory effect of each test compound on acethylcholinesterase was determined in terms of 50% inhibitory concentration (IC50).
Each of the compounds was dissolved in physiological saline for use as a test sample.

As for `COc1cc2c(cc1OC)C(=O)C(F)(CC1CCN(Cc3ccccn3)CC1)C2` (stereo not drawn) (as salt: hydrochloride), the melting point (commonly the temperature of the solid-liquid transition) was in the range of 177 to 180 °C.

In turn, `COc1cc2c(cc1OC)C(=O)C(F)(CC1CCN(CC3OCCO3)CC1)C2` (stereo not drawn) (as salt: hydrochloride) yielded a melting point of 143 to 145 °C.

`COc1cc2c(cc1OC)C(=O)C(F)(CC1CCN(Cc3cccc(C#N)c3)CC1)C2` (stereo not drawn) (as salt: hydrochloride) displayed a melting point of 139 to 141 °C.

Consider `CCOc1cc2c(cc1OCC)C(=O)C(F)(CC1CCN(Cc3ccccc3)CC1)C2` (stereo not drawn) [Example 1, 1-Benezyl-4-[(5,6-diethoxy-2-flouro-1-indanon)-2-yl]methylpiperidine Hydrochloride], for which, on acetylcholinesterase, the IC50 came out at 380 pM.

As to `COc1cc2c(cc1OC)C(=O)C(F)(CC1CCN(Cc3cccc(F)c3)CC1)C2` (stereo not drawn) [Example 4, 4-[(5,6-Dimethoxy-2-flouro-indanon)-2-yl]methyl-1-(3-flourobenzyl)piperidine Hydrochloride], on acetylcholinesterase, the IC50 was found to be 470 pM.

For `COc1cc2c(cc1OC)C(=O)C(F)(CC1CCN(Cc3cccc(C)c3)CC1)C2` (stereo not drawn) [Example 5, 4-[(5,6-Dimethoxy-2-flouro-1-indanon)-2-yl]methyl-1-(3-methylbenzyl)piperidine Hydrochoride], the IC50 on acetylcholinesterase worked out at 820 pM.

Turning to `COc1cc2c(cc1OC)C(=O)C(F)(CC1CCN(CC3CCCCC3)CC1)C2` (stereo not drawn) [Example 6, 1-(-Cyclohexylmethyl-4-[(5,6-dimethoxy-2-flouro-1-indanon)-2-yl]methylpiperidine Hydrochloride], the IC50 at acetylcholinesterase turned out to be 1700 pM.

As for `COc1cc2c(cc1OC)C(=O)C(F)(CC1CCN(Cc3cccc([N+](=O)[O-])c3)CC1)C2` (stereo not drawn) [Example 11, 4-[(5,6-Dimethoxy-2-flouro-1-indanon)-2-yl]methyl-1-(3-nitrobenzyl)piperidine Hydrochloride], the IC50 on acetylcholinesterase amounted to 700 pM.

For the compound `COc1ccc2c(c1)CC(F)(CC1CCN(Cc3ccccc3)CC1)C2=O` (stereo not drawn) [Example 12, 1-Benzyl-4-[(5-methoxy-2-flouro-1-indanon)-2-yl]methylpiperidine Hydrochloride], on acetylcholinesterase, the IC50 came to 1200 pM.

On to `COc1cc2c(cc1OC)C(=O)C(F)(CCCC1CCN(Cc3ccccc3)CC1)C2` (stereo not drawn) [Example 14, 1-Benzyl-4-[3-[5,6-dimethoxy-2-flouro-1-indanon)-2-yl]propyl]piperidine Hydrochloride], for which the IC50 at acetylcholinesterase worked out at 1400 pM.

Consider `COc1cc2c(cc1OC)C(=O)C(F)(CC1CCN(Cc3ccc(O)cc3)CC1)C2` (stereo not drawn) [Example 15, 4-[(5,6-Dimethoxy-2-flouro-1-indanon)-2-yl]methyl-1-(4-hydroxybenzyl)piperidine Hydrochloride], for which the IC50 at acetylcholinesterase stood at 320 pM.

For `CCCOc1cc2c(cc1OCCC)C(=O)C(F)(CC1CCN(Cc3ccccc3)CC1)C2` (stereo not drawn) [Example 17, 1-Benzyl-4-[[[5,6-di-(1-propyloxy)]-2-flouro-1-indanon-2-yl]methylpiperidine Hydrochloride], the IC50 at acetylcholinesterase was determined as 890 pM.
